Data reported in patent US6638531B1, “Antimicrobial peptides” (priority 1998, dated 2003).
In brackets after ≈: the same amount, converted by molar mass. Marks after values point to notes of the source that are not given here. Where no end group is shown, it is not given here.

Key:
[1] = system: Cryptococcus neoformans; experiment: microbe, parasite or virus in culture
Description: (§1) 5*10^6 cells of Candida pseudotropicalis, Candida albicans 10231, Cryptococcus neoformans, Candida krusei, Candida parapsilosis, Candida glabrata and Candida albicans 32354 and an ergosterol-deficient mutant thereof were incubated for one and a half hours at 37° C. in the presence of a dilution series of a peptide according to the invention or amphotericin B in 1 mM potassium phosphate buffer, pH 7.0. The viability was determined by plating out. Used as positive control was synthetic PGLa (“Protein beginning with Glycine and ending with Leucin-amide”, with the amino acid sequence […]-amide).

[2] = system: Candida pseudotropicalis; experiment: microbe, parasite or virus in culture
Description: as §1

[3] = system: Candida albicans 10231; experiment: microbe, parasite or virus in culture
Description: as §1

[4] = system: Candida glabrata; experiment: microbe, parasite or virus in culture
Description: as §1

[5] = system: Candida krusei; experiment: microbe, parasite or virus in culture
Description: as §1

[6] = system: Candida albicans 32354; experiment: microbe, parasite or virus in culture
Description: as §1

[7] = system: Candida parapsilosis; experiment: microbe, parasite or virus in culture
Description: as §1

[8] = system: bacteria collected from saliva; experiment: Antimicrobial activity on oral bacteria; format: cell-based; conditions: 0.5 h, 100 μg/ml
Text: (§2) In order to determine whether the peptides according to the invention are also active against bacteria such as are encountered in the mouth, bacteria were collected from saliva and plaque. Saliva was shaken on a vortex mixer and centrifuged.

[9] = system: bacteria from disrupted plaque; experiment: Antimicrobial activity on oral bacteria; format: cell-based; conditions: 0.5 h, 100 μg/ml
Text: as §2

[10] = system: bacteria collected from plaque; experiment: Antimicrobial activity on oral bacteria; format: cell-based; conditions: 0.5 h, 100 μg/ml
Text: as §2

[11] = system: bacteria from cultured plaque; experiment: Antimicrobial activity on oral bacteria; format: cell-based; conditions: 0.5 h, 100 μg/ml
Text: as §2

[12] = system: Fusobacterium nucleatum (ATCC 10953); experiment: Antibacterial activity against monocultures in vitro (viability counts); format: cell-based; conditions: 0.5 h, 100 μg/ml
Description: (§3) Monocultures of the bacteria Streptococcus mutans (R9), Strentococcus sanguis (SB 179), Streptococcus salivarius (SS 196), Actinomyces naeslundii (WVU 627), Fusobacterium nucleatum (ATCC 10953), Prevotella intermedia ([…]) and Veillonella parvula (ATCC 17745) were cultured to a late log phase in BHI (Difco), washed three times in 10 mM potassium phosphate buffer (PPB) and diluted to a suspension of 10^6 CFU/ml. […] The control treatment was performed in 10 mM without peptide.

[13] = system: Streptococcus salivarius (SS 196); experiment: as above; format: cell-based; conditions: 0.5 h, 100 μg/ml
Description: as §3

[14] = system: Veillonella parvula (ATCC 17745); experiment: as above; format: cell-based; conditions: 0.5 h, 100 μg/ml
Description: as §3

[15] = system: Prevotella intermedia (T588); experiment: as above; format: cell-based; conditions: 0.5 h, 100 μg/ml
Description: as §3

[16] = system: Strentococcus sanguis (SB 179); experiment: as above; format: cell-based; conditions: Streptococcus sanguis, 0.5 h, 100 μg/ml
Description: as §3

[17] = system: Actinomyces naeslundii (WVU 627); experiment: as above; format: cell-based; conditions: 0.5 h, 100 μg/ml
Description: as §3

[18] = system: Streptococcus mutans (R9); experiment: as above; format: cell-based; conditions: 0.5 h, 100 μg/ml
Description: as §3

[19] = system: Streptococcus mutans; experiment: Inhibition of lactic acid production; format: cell-based; conditions: S. mutans; 1 hour in 10 mM PPB with glucose
Description: (§4) All peptides according to the invention were tested for their capacity to inhibit the lactic acid production of the bacteria Streptococcus sanguis, Streptococcus mutans, Streptococcus salivarius and Lactobacillus rhamnosus. The formation of lactic acid is a measure for the metabolic activity. For this purpose cultures of bacteria cells were incubated for 1 hour in 10 mM PPB with 0.5 glucose and different concentrations of the peptides. The formation of lactic acid was monitored by means of spectrophotometry.

[20] = system: Lactobacillus rhamnosus; experiment: Inhibition of lactic acid production; format: cell-based; conditions: L. rhamnosus; 1 hour in 10 mM PPB with glucose
Description: as §4

[21] = system: Streptococcus salivarius; experiment: Inhibition of lactic acid production; format: cell-based; conditions: S. salivarius; 1 hour in 10 mM PPB with glucose
Description: as §4

[22] = system: Streptococcus sanguis; experiment: Inhibition of lactic acid production; format: cell-based; conditions: S. sanguis; 1 hour in 10 mM PPB with glucose
Description: as §4

[23] = system: Yersinia enterocolitica (PYv+); experiment: Killing of Yersinia by peptide 10 (CFU over time); format: cell-based; conditions: 50 μg/ml, CFU at 0, 1, 2 and 3 hours (FIG. 3B)
Description: (§5) Peptide 10 was added in a concentration of 50 μg/ml to a culture with 10^4 Salmonella typhimurium bacteria. For control purposes a culture to which nothing was added was included as blank. The number of CFU was determined at the points in time 0, 1, 2 and 3 hours. The same was done with Yersinia enterocolitica (PYv+). […] Particular peptides are also found to have a killing effect on micro-organisms which are resistant to antimicrobial agents used at present.

[24] = system: Candida albicans; experiment: Growth inhibition on agar with spotted peptide; format: cell-based; design: key: “+” designates full growth inhibition; “+/−” designates partial inhibition; “−” signifies no inhibition; conditions: C. albicans on agar, 10 μg peptide spotted
Description: (§6) The growth of the yeast Candida albicans, Torulopsis glabrata and meticillin-resistant Staphylococcus aureus (MRSA) was tested by growing them on agar on which 10 μg of each of the peptides according to the invention was spotted. […] “+” designates full growth inhibition, “+/−” designates partial inhibition and “−” signifies no inhibition.

[25] = system: meticillin-resistant Staphylococcus aureus (MRSA); experiment: Growth inhibition on agar with spotted peptide; format: cell-based; design: key: “+” designates full growth inhibition; “+/−” designates partial inhibition; “−” signifies no inhibition; conditions: 10 μg peptide spotted
Description: as §6

[26] = system: Torulopsis glabrata; experiment: Growth inhibition on agar with spotted peptide; format: cell-based; design: key: “+” designates full growth inhibition; “+/−” designates partial inhibition; “−” signifies no inhibition; conditions: T. glabrata on agar, 10 μg peptide spotted
Description: as §6

[27] = system: Salmonella typhimurium; experiment: Killing of Salmonella by peptide 10 (CFU over time); format: cell-based; conditions: 50 μg/ml, culture with 10^4 Salmonella typhimurium, CFU at 0, 1, 2 and 3 hours (FIG. 3A)
Description: as §5

[28] = system: Candida albicans 32354, ergosterol-deficient mutant; experiment: Killing of yeasts; format: cell-based; conditions: pH 7, read-out: IC50 values (50% of the inoculum is killed)
Description: as §1

Compound: GHMASKGAIAGKIAKVALKAL-NH2 [positive control peptide]
- IC50 values (50% of the inoculum is killed) ([1]; pH 7): 0.5 µg/mL
- IC50 values (50% of the inoculum is killed) ([2]; pH 7): 1 µg/mL
- IC50 values (50% of the inoculum is killed) ([3]; 10231, pH 7): 1 µg/mL
- IC50 values (50% of the inoculum is killed) ([4]; pH 7): 9 µg/mL
- IC50 values (50% of the inoculum is killed) ([5]; pH 7): 1 µg/mL
- IC50 values (50% of the inoculum is killed) ([6]; 32354, pH 7): 1 µg/mL
- IC50 values (50% of the inoculum is killed) ([7]; pH 7): 1 µg/mL
- % reduction in viability counts, total Gram-negative average [8]: 97.7%
- % reduction in viability counts, total aerobic average [8]: 60.1%
- % reduction in viability counts, total anaerobic average [8]: 73.2%
- % reduction in viability counts, total Gram-negative average [9]: 45.9%
- % reduction in viability counts, total aerobic average [9]: 41.7%
- % reduction in viability counts, total anaerobic average [9]: 68.5%
- % reduction in viability counts, total Gram-negative average [10]: 84.0%
- % reduction in viability counts, total aerobic average [10]: 58.5%
- % reduction in viability counts, total anaerobic average [10]: 51.5%
- % reduction in viability counts, total Gram-negative average [11]: 83.7%
- % reduction in viability counts, total aerobic average [11]: 20.6%
- % reduction in viability counts, total anaerobic average [11]: 87.2%
- % reduction in viability counts [12]: >99.9* %
- % reduction in viability counts [13]: >99.9* %
- % reduction in viability counts [14]: >99.9* %
- % reduction in viability counts [15]: 98.0%
- % reduction in viability counts [16]: >99.9* %
- % reduction in viability counts [17]: >99.9* %
- % reduction in viability counts [18]: >99.9%

Compound: KRLFKKLLFSLRKY [peptide 10, KRLFKKLLFSLRKY]
- inhibition of lactic acid production [19]: + (“+” designates full inhibition at 4-20 μg/ml peptide)
- inhibition of lactic acid production [20]: + (“+” designates full inhibition at 4-20 μg/ml peptide)
- inhibition of lactic acid production [21]: + (“+” designates full inhibition at 4-20 μg/ml peptide)
- inhibition of lactic acid production [22]: + (“+” designates full inhibition at 4-20 μg/ml peptide)
- number of bacteria (CFU) after adding peptide [23]: below the detection limit
- growth inhibition [24]: +
- growth inhibition [25]: +
- growth inhibition [26]: +
- number of bacteria (CFU) after adding peptide [27]: below the detection limit

Compound: C[C@@H]1[C@H](O)[C@@H](C)/C=C/C=C/C=C/C=C/C=C/C=C/C=C/[C@H](O[C@@H]2O[C@H](C)[C@@H](O)[C@H](N)[C@@H]2O)C[C@@H]2O[C@](O)(C[C@@H](O)C[C@@H](O)[C@H](O)CC[C@@H](O)C[C@@H](O)CC(=O)O[C@H]1C)C[C@H](O)[C@H]2C(=O)O [amphotericin B]
- IC50 [28]: > 70 µg/mL
- IC50 ([1]; Cryptococcus neoformans, pH 7, read-out: IC50 values (50% of the inoculum is killed)): 1 µg/mL (≈ 1.08 µM)
- IC50 ([2]; Kluyveromyces marxianus, pH 7, read-out: IC50 values (50% of the inoculum is killed)): 8 µg/mL (≈ 8.66 µM)
- IC50 ([3]; Candida albicans, 10231, pH 7, read-out: IC50 values (50% of the inoculum is killed)): 1 µg/mL (≈ 1.08 µM)
- IC50 ([4]; Nakaseomyces glabratus, pH 7, read-out: IC50 values (50% of the inoculum is killed)): 2 µg/mL (≈ 2.16 µM)
- IC50 ([5]; Pichia kudriavzevii, pH 7, read-out: IC50 values (50% of the inoculum is killed)): > 70 µg/mL
- IC50 ([6]; Candida albicans, 32354, pH 7, read-out: IC50 values (50% of the inoculum is killed)): 2 µg/mL (≈ 2.16 µM)
- IC50 ([7]; Lodderomyces parapsilosis, pH 7, read-out: IC50 values (50% of the inoculum is killed)): 6 µg/mL (≈ 6.49 µM)
